From paper PMC8032624, “Prediction of dose-dependent in vivo acetylcholinesterase inhibition by profenofos in rats and humans using physiologically based kinetic (PBK) modeling-facilitated reverse dosimetry” (Archives of Toxicology, 2021) come the findings set out here.

For this assay, the target named is AChE (Homo sapiens, UniProt P22303). Kind of assay: AChE inhibition by BCP. Type of assay: biochemical.
AChE, sequence (P22303 32-614): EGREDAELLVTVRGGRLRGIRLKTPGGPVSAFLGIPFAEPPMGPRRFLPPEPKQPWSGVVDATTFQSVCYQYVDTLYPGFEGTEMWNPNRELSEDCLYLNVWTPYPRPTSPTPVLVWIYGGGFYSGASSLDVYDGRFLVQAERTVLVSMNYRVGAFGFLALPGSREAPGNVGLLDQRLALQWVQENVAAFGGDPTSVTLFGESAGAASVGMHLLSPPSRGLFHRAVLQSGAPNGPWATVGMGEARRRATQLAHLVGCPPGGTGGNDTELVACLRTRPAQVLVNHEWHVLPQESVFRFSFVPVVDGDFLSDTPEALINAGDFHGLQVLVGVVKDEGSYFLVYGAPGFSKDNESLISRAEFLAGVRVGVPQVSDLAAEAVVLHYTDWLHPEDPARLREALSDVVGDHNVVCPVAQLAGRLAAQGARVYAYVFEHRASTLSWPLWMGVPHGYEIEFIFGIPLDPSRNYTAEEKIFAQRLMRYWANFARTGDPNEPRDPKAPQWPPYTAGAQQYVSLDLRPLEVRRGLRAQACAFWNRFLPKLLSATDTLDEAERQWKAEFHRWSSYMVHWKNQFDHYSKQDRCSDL

Consider `Oc1ccc(Br)cc1Cl` [BCP, 4-bromo-2-chlorophenol], for which the AChE inhibition result is “not inhibit AChE”.
